Results taken from ChEMBL document CHEMBL1909046, “DrugMatrix in vitro pharmacology data”.

Assays:
[1] = target: Protein phosphatase 3 catalytic subunit alpha (Homo sapiens, UniProt Q08209); set-up: species or system Escherichia coli;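 also: inhibition of calcineurin (PP2B) enzyme activity, measured with DiFMUP as the substrate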
[2] = target: T1, Muscarinic acetylcholine receptor M4 (Homo sapiens, UniProt P08173); assay type: cell membranes, CHO-K1, Membrane; conditions: cho-k1
T1 sequence (P08173 whole entry): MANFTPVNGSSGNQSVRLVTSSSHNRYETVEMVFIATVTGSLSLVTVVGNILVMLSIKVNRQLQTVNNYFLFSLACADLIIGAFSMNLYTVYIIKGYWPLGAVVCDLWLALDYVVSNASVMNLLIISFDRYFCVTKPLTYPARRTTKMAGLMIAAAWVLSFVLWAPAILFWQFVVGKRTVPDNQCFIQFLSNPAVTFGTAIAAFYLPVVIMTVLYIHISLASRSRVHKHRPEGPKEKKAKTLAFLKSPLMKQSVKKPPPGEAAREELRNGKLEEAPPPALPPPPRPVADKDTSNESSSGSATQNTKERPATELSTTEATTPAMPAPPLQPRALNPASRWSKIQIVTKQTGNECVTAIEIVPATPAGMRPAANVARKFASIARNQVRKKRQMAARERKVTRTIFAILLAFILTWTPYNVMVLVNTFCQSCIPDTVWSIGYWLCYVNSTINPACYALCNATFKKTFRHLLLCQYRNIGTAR

[3] = target: T2, Neuropeptide Y receptor type 1 (Homo sapiens, UniProt P25929); assay type: cell membranes, Membrane; conditions: sk-n-mc
T2 sequence (P25929 whole entry): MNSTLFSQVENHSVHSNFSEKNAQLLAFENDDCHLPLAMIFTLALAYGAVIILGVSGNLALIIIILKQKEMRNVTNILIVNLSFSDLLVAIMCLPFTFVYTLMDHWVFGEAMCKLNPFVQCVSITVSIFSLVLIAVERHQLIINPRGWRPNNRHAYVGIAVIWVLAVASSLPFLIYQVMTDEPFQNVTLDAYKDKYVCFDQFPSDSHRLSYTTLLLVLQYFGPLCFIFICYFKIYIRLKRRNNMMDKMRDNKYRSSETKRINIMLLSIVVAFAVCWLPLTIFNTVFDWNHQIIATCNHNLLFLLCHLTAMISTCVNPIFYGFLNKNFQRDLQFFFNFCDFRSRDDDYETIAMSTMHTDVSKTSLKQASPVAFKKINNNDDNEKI

[4] = target: T3, Muscarinic acetylcholine receptor M5 (Homo sapiens, UniProt P08912); assay type: cell membranes, CHO-K1, Membrane; conditions: cho-k1
T3 sequence (P08912 whole entry): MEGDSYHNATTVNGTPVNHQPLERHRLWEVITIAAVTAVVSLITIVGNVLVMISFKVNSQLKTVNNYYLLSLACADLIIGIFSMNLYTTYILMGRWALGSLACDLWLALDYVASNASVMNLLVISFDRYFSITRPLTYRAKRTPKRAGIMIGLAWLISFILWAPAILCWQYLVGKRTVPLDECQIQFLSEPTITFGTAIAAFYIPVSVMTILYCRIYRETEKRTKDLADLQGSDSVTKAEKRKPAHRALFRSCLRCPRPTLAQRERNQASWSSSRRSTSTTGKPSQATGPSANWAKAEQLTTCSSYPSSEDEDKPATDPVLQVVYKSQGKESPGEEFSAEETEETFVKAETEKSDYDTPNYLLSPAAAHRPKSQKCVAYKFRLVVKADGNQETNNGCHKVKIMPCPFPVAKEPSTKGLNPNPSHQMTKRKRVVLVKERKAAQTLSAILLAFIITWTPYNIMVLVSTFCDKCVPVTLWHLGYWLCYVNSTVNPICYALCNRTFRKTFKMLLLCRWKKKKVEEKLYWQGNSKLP

[5] = target: Tyrosine-protein kinase Fyn (Homo sapiens, UniProt P06241); test: biochemical; assay type: cell-based, Insect cells;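 also: enzymatic inhibition of Fyn kinase activity measured with Poly(Glu:Tyr) as the phosphorylation substrate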
[6] = target: T4, 3-hydroxy-3-methylglutaryl-coenzyme A reductase (Homo sapiens, UniProt P04035); set-up: species or system Escherichia coli;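 also: enzyme inhibition assay of HMG-CoA reductase using radiolabeled [14C]HMG-CoA as substrate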
T4 sequence (P04035 whole entry): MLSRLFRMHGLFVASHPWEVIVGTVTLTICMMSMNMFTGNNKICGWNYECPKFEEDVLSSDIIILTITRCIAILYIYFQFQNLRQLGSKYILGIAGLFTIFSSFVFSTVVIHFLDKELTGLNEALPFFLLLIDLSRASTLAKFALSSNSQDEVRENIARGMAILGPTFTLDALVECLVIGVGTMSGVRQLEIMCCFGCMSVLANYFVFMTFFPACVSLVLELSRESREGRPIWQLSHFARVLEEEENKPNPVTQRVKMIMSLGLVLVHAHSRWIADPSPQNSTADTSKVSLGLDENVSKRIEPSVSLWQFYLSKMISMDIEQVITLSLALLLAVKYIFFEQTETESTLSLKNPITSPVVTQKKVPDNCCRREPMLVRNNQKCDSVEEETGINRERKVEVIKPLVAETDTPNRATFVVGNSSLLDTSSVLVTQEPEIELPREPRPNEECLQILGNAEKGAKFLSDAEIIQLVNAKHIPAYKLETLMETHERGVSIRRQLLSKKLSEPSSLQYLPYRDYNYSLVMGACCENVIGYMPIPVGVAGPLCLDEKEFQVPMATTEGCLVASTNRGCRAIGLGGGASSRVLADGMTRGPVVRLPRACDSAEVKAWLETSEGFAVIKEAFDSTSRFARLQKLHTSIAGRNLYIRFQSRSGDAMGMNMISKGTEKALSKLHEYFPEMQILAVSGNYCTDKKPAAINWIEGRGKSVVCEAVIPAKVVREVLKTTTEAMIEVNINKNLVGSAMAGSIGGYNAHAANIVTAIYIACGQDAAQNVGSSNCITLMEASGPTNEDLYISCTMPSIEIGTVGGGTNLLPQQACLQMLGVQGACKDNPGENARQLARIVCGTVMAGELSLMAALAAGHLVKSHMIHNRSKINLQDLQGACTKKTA

[7] = target: T5, Alpha-2A adrenergic receptor (Homo sapiens, UniProt P08913); assay type: cell membranes, Sf9, Membrane; conditions: sf9
T5 sequence (P08913 whole entry): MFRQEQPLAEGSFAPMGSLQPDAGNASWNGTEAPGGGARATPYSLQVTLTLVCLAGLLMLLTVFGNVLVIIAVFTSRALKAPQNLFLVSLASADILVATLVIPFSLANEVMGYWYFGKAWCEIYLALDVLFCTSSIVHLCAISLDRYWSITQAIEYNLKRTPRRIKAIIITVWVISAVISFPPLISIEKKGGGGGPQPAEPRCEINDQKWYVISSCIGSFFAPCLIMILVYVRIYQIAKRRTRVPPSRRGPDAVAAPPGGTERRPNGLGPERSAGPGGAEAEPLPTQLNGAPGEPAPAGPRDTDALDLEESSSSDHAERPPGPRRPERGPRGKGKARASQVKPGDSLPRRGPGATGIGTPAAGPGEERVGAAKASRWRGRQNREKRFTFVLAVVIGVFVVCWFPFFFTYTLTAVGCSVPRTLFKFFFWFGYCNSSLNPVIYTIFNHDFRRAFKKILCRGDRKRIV
Also: in other assays of this panel Not Active means under 50% inhibition at 10 µM.

Tyrosine-protein kinase Fyn, sequence (P06241 whole entry): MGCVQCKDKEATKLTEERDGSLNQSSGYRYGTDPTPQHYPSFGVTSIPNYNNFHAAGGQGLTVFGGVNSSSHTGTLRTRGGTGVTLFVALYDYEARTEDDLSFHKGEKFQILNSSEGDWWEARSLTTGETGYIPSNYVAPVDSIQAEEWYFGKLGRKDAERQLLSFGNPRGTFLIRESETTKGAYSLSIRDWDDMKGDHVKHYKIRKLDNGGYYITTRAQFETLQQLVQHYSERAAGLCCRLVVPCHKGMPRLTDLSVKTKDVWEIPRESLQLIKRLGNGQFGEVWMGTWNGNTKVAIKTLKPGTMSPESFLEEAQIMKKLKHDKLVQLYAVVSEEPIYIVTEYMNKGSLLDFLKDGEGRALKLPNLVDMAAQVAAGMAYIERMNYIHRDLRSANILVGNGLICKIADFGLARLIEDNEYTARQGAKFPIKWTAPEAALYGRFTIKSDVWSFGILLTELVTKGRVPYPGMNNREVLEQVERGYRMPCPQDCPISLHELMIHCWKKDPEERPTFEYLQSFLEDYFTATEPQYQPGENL

`COCCOC(=O)C1=C(C)NC(C)=C(C(=O)OC(C)C)C1c1cccc([N+](=O)[O-])c1` (configuration not stated) [NIMODIPINE] was tested, and the IC50 [1] was “Not Active”, the IC50 [2] was “Not Active” and the IC50 [3] was “Not Active”. For the same compound, the IC50 [4] was “Not Active”, the IC50 ([5]; insect cells) was “Not Active” and the IC50 [6] was “Not Active”. The IC50 [7] was “Not Active”.

In the case of `CC(C)NCC(O)COc1cccc2ccccc12` (configuration not stated) [PROPRANOLOL], the IC50 [1] is reported as “Not Active”, the IC50 [2] is reported as “Not Active” and the IC50 [3] is reported as “Not Active”. The IC50 [4] was “Not Active”, the IC50 ([5]; insect cells) was “Not Active” and the IC50 [6] was “Not Active”. For the same compound, the IC50 [7] was “Not Active”.

In the case of `COCCCOc1ccnc(C[S+]([O-])c2nc3ccccc3[nH]2)c1C` (configuration not stated) [RABEPRAZOLE], the IC50 [1] is reported as “Not Active”, the IC50 [2] is reported as “Not Active” and the IC50 [3] is reported as “Not Active”. For the same compound, the IC50 [4] was “Not Active”, the IC50 ([5]; insect cells) was “Not Active” and the IC50 [6] was “Not Active”. The IC50 [7] was “Not Active”.

For `O=C(c1ccc(OCCN2CCCCC2)cc1)c1c(-c2ccc(O)cc2)sc2cc(O)ccc12` [RALOXIFENE], the IC50 [1] was “Not Active”, the IC50 [2] was “Not Active” and the IC50 [3] was “Not Active”. For the same compound, the IC50 [4] was “Not Active”, the IC50 ([5]; read-out: IC50) was 3.67 µM and the IC50 [6] was “Not Active”.

For `CNC(=C[N+](=O)[O-])NCCSCc1ccc(CN(C)C)o1` [RANITIDINE], the IC50 [1] was “Not Active”, the IC50 [2] was “Not Active” and the IC50 [3] was “Not Active”. The IC50 [4] was “Not Active”, the IC50 ([5]; insect cells) was “Not Active” and the IC50 [6] was “Not Active”. For the same compound, the IC50 [7] was “Not Active”.

In the case of `CO[C@H]1/C=C/O[C@@]2(C)Oc3c(C)c(O)c4c(c3C2=O)C2=NC3(CCN(CC(C)C)CC3)NC2=C(NC(=O)/C(C)=C\C=C\[C@H](C)[C@H](O)[C@@H](C)[C@@H](O)[C@@H](C)[C@H](OC(C)=O)[C@@H]1C)C4=O` [RIFABUTIN], the IC50 [1] is reported as “Not Active”, the IC50 [2] is reported as “Not Active” and the IC50 [3] is reported as “Not Active”. The IC50 [4] was “Not Active”, the IC50 ([5]; insect cells) was “Not Active” and the IC50 [6] was “Not Active”. For the same compound, the IC50 [7] was “Not Active”.

With `CC(C)c1nc(CN(C)C(=O)N[C@H](C(=O)N[C@@H](Cc2ccccc2)C[C@H](O)[C@H](Cc2ccccc2)NC(=O)OCc2cncs2)C(C)C)cs1` [RITONAVIR] the IC50 [1] was “Not Active”, the IC50 [2] was “Not Active” and the IC50 [3] was “Not Active”. For the same compound, the IC50 [4] was “Not Active”, the IC50 ([5]; insect cells) was “Not Active” and the IC50 [6] was “Not Active”. For the same compound, the IC50 [7] was “Not Active”.

`CC(C)CC(N(C)C)C1(c2ccc(Cl)cc2)CCC1` (configuration not stated) [SIBUTRAMINE] was tested, and the IC50 [1] was “Not Active”, the IC50 [2] was “Not Active” and the IC50 [3] was “Not Active”. For the same compound, the IC50 [4] was “Not Active”, the IC50 ([5]; insect cells) was “Not Active” and the IC50 [6] was “Not Active”. The IC50 [7] was “Not Active”.

For `[H]/N=C(/N)N[C@H]1[C@H](O)[C@@H](O)[C@H](O[C@@H]2O[C@@H](C)[C@](O)(C=O)[C@H]2O[C@@H]2O[C@@H](CO)[C@H](O)[C@@H](O)[C@@H]2NC)[C@@H](N/C(N)=N\[H])[C@@H]1O` [STREPTOMYCIN], the IC50 [1] was “Not Active”, the IC50 [2] was “Not Active” and the IC50 [3] was “Not Active”. The IC50 [4] was “Not Active”, the IC50 ([5]; insect cells) was “Not Active” and the IC50 [6] was “Not Active”. The IC50 [7] was “Not Active”.
